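Grown in 96-well plates, cells were treated for 48 hours with each compound at five concentrations. Insufficient inhibition: endpoint recorded as highest concentration tested. The concentration for 50% growth inhibition is given as GI50. TGI is the concentration that stops growth completely.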 Where a SMILES comes first, the peptide text is derived from it. [ ]: non-standard residue; d: D form. The star is where a group is joined. ξ: configuration not given here. X16 = COC1=CC(=O)N(C(=O)C(O*)C(C)C)C1Cc1ccccc1; ξNMe2Val = CC(C)C(C(=O)*)N(C)C; NMeV = CN[CH](C(=O)O)C(C)C

Some test systems named below: HCC-2998 colon; M14 melanoma; MALME-3M melanoma; NCI-H522 lung; OVCAR-4 ovarian; SN12C renal; XF 498 CNS; OVCAR-5 ovarian; UACC-257 melanoma; T-47D breast.
Test in all cases: NCI anticancer screen, dose series, 48 h

Regarding `c1cnc2c(c1)-n1cccc1C1(CCOCC1)NN2`, the TGI with HCC-2998 colon, in the assay with M14 melanoma, in the assay with MALME-3M melanoma, in the assay with NCI-H522 lung, in the assay on OVCAR-4 ovarian and in the assay with SN12C renal was over 100 µM in each case. Besides, the TGI with XF 498 CNS was over 100 µM.
As to `Nc1cc2c(cc1[N+](=O)[O-])[nH]c1c(-c3ccccc3)nccc12`, the TGI is 31.5 µM in the assay with HCC-2998 colon; 52.1 µM in the assay on MALME-3M melanoma; 27.5 µM with NCI-H522 lung; 50.6 µM in the assay on OVCAR-4 ovarian; 98.3 µM in the assay on OVCAR-5 ovarian; over 100 µM in the assay with SN12C renal. The TGI in the assay on UACC-257 melanoma was 42.4 µM; in the assay on XF 498 CNS, over 100 µM.
On to `N=C(N)/N=C(/C=C/c1ccccc1)CC1OC(=O)c2ccccc21` (stereo unspecified), for which the TGI in the assay with HCC-2998 colon, in the assay with M14 melanoma, in the assay on MALME-3M melanoma, in the assay on NCI-H522 lung, in the assay on OVCAR-4 ovarian and in the assay with SN12C renal was over 100 µM throughout. Further, the TGI with UACC-257 melanoma and with XF 498 CNS was over 100 µM each time.
For the molecule `Cc1ccc(OP2(=O)Oc3ccc4ccccc4c3CN2c2ccc(Cl)cc2)cc1C` (stereo unspecified), the TGI in the assay with HCC-2998 colon, with MALME-3M melanoma, in the assay on NCI-H522 lung, with OVCAR-4 ovarian, in the assay with OVCAR-5 ovarian and in the assay on SN12C renal was over 100 µM each time. Further, the TGI with UACC-257 melanoma and with XF 498 CNS was over 100 µM each time.
Turning to `Cc1ccc(-c2cc(-c3ccco3)nc(N)n2)o1`, the TGI in the assay on M14 melanoma, in the assay on MALME-3M melanoma, with NCI-H522 lung, in the assay with OVCAR-4 ovarian, with OVCAR-5 ovarian and in the assay on SN12C renal was over 100 µM throughout. Moreover, the TGI in the assay with XF 498 CNS was over 100 µM.
With `COC1/C=C\C=C(/C)C(=O)NC2=CC(=O)C(NCCCl)=C(CC(C)CC(OC)C(O)C(C)/C=C(/C)C1OC(N)=O)C2=O` (stereo unspecified), the TGI worked out at 1 µM with HCC-2998 colon; 2.48 µM in the assay with M14 melanoma; 1.48 µM in the assay with MALME-3M melanoma; 0.319 µM in the assay with NCI-H522 lung; 15 µM with OVCAR-4 ovarian; 11.7 µM with OVCAR-5 ovarian. The TGI was determined as 2.8 µM with SN12C renal, 20.4 µM in the assay on T-47D breast, 0.911 µM in the assay with UACC-257 melanoma and 8.85 µM in the assay with XF 498 CNS.
On to `COc1cc2c(cc1O)[C@H](C)C(c1ccc(Cl)cc1)O2` (stereo partly specified), for which the TGI with HCC-2998 colon was 36.1 µM; in the assay with M14 melanoma it was 55.1 µM; in the assay on MALME-3M melanoma it was 80.6 µM; in the assay with NCI-H522 lung, 27.3 µM; with OVCAR-4 ovarian it was over 100 µM; in the assay with OVCAR-5 ovarian it was over 100 µM. Moreover, the TGI in the assay on UACC-257 melanoma is over 100 µM; in the assay with XF 498 CNS it was 29.4 µM.
Take `O=c1[nH]cnc2c1nnn2CCCn1nnc2c(=O)[nH]cnc21`: the TGI with HCC-2998 colon, in the assay on M14 melanoma, in the assay with NCI-H522 lung, with OVCAR-4 ovarian, in the assay with OVCAR-5 ovarian and in the assay on SN12C renal was over 100 µM in each case. Moreover, the TGI in the assay with UACC-257 melanoma and with XF 498 CNS was over 100 µM in each case.
For the molecule `c1ccc2[nH]c(-c3nc4ccccc4o3)nc2c1`, the TGI in the assay with HCC-2998 colon, in the assay with M14 melanoma, in the assay on MALME-3M melanoma, in the assay on NCI-H522 lung, in the assay on OVCAR-4 ovarian and in the assay with OVCAR-5 ovarian was over 100 µM each time. The TGI in the assay on SN12C renal, in the assay with UACC-257 melanoma and in the assay with XF 498 CNS was over 100 µM each time.
With `Oc1c(Cl)c2nccnc2c2ccccc12`, the TGI with HCC-2998 colon, with M14 melanoma, with MALME-3M melanoma, with NCI-H522 lung, with OVCAR-4 ovarian and in the assay on OVCAR-5 ovarian was over 100 µM each time. Besides, the TGI in the assay with SN12C renal, in the assay with UACC-257 melanoma and in the assay with XF 498 CNS was over 100 µM throughout.
For the molecule `C=CCN1C(=O)CS/C1=N\NC(=O)c1c(C)nc2sccn12`, the TGI in the assay on HCC-2998 colon, in the assay with MALME-3M melanoma, in the assay with NCI-H522 lung, in the assay on OVCAR-5 ovarian, in the assay on SN12C renal and in the assay on UACC-257 melanoma was over 100 µM throughout. Further, the TGI in the assay with XF 498 CNS was over 100 µM.
With `C=C/C(C)=C/[C@H](C)C(=O)C[C@H](O)CC1CC(=O)NC(=O)C1`, the TGI is over 100 µM with HCC-2998 colon; over 100 µM in the assay on MALME-3M melanoma; over 87.8 µM with NCI-H522 lung; over 100 µM with OVCAR-4 ovarian; over 100 µM with OVCAR-5 ovarian; over 100 µM with SN12C renal. In addition, the TGI came to 97.9 µM in the assay on UACC-257 melanoma and 9.91 µM in the assay with XF 498 CNS.
For `CC(C)(C)C1CC[C@H]2c3c([nH]c4ccc(Br)cc34)[C@H]3C(=O)N(c4ccccc4)C(=O)[C@H]3[C@H]2C1` (stereo partly specified), the TGI with HCC-2998 colon was over 100 µM; in the assay with M14 melanoma it was over 100 µM; with MALME-3M melanoma, over 100 µM; with NCI-H522 lung, 69.3 µM; in the assay with OVCAR-4 ovarian, 33.3 µM; with OVCAR-5 ovarian it was over 100 µM. The TGI is 57.3 µM with SN12C renal, over 100 µM in the assay with UACC-257 melanoma and 38.2 µM in the assay with XF 498 CNS.
With `Nc1c(Br)cc(-c2cc(Br)c(N)c(Br)c2)cc1Br`, the TGI with HCC-2998 colon, in the assay on M14 melanoma, in the assay with MALME-3M melanoma, with NCI-H522 lung, with OVCAR-4 ovarian and in the assay on OVCAR-5 ovarian was over 100 µM throughout. Moreover, the TGI with SN12C renal, with T-47D breast and in the assay with UACC-257 melanoma was over 100 µM each time.
In the case of `Oc1c(OCc2nnc(CCCCCCCCc3nnc(COc4ccc5ccccc5c4O)n3Nc3ccccc3)n2Nc2ccccc2)ccc2ccccc12`, the TGI with HCC-2998 colon was 21.8 µM; in the assay with M14 melanoma it was 10.9 µM; in the assay with MALME-3M melanoma it was 28.8 µM; in the assay on NCI-H522 lung, 27.3 µM; in the assay on OVCAR-4 ovarian, 20.7 µM; in the assay with OVCAR-5 ovarian, 28.5 µM. The TGI in the assay on SN12C renal was 29.2 µM; in the assay with T-47D breast, over 100 µM; in the assay on UACC-257 melanoma, 25.7 µM.
In the case of `O=C(NCc1cn(Cc2cccc(Oc3ccccc3)c2)nn1)c1cccnc1Nc1ccccc1`, the GI50 was 3.7 µM in the assay with HCC-2998 colon; 2.86 µM in the assay with M14 melanoma; 16.1 µM in the assay on MALME-3M melanoma; 2.11 µM in the assay on NCI-H522 lung; 5.42 µM with OVCAR-4 ovarian; 5.73 µM in the assay with OVCAR-5 ovarian. The GI50 in the assay with SN12C renal was 4.3 µM; in the assay on T-47D breast, 5.4 µM; in the assay with UACC-257 melanoma it was 14.2 µM. Moreover, the TGI is 21.8 µM with HCC-2998 colon; 9.86 µM with M14 melanoma; over 100 µM in the assay with MALME-3M melanoma; 5.06 µM with NCI-H522 lung; over 100 µM in the assay with OVCAR-4 ovarian; over 100 µM with OVCAR-5 ovarian. Also, the TGI was found to be 51.2 µM in the assay on SN12C renal, 63.2 µM with T-47D breast and 86.4 µM in the assay on UACC-257 melanoma.
Turning to `OCC(O)COc1ccc(Br)cc1` (stereo unspecified), the TGI with HCC-2998 colon, in the assay on M14 melanoma, with MALME-3M melanoma, in the assay on NCI-H522 lung, with OVCAR-4 ovarian and in the assay with OVCAR-5 ovarian was over 100 µM throughout. Besides, the TGI with SN12C renal, in the assay with UACC-257 melanoma and with XF 498 CNS was over 100 µM each time.
Regarding `COC1=CC(=O)N(C(=O)C(OC(=O)C2CCCN2C(=O)C2CCCN2C(=O)C(C(C)C)N(C)C(=O)C(NC(=O)C(C(C)C)N(C)C)C(C)C)C(C)C)C1Cc1ccccc1` (stereo unspecified) (ξNMe2Val-V[NMeV]PP-X16; configuration not given here), the GI50 in the assay with HCC-2998 colon was under 0.0004 µM; with MALME-3M melanoma, under 0.0004 µM; with OVCAR-4 ovarian, 0.663 µM; in the assay on OVCAR-5 ovarian it was over 4 µM; in the assay on SN12C renal, under 0.0004 µM; in the assay on XF 498 CNS it was under 0.0004 µM. Moreover, the TGI in the assay with MALME-3M melanoma was over 4 µM; with NCI-H522 lung it was 0.00182 µM; in the assay on OVCAR-4 ovarian, over 4 µM; in the assay with OVCAR-5 ovarian, over 4 µM.

These data come from PubChem BioAssay (NCI).
